From US11840528B2 (Hoffmann-La Roche Inc., priority 2018, dated 2023)

Assays:
h-GABA-A α5β3γ2 [1] = target: T1, h-GABA-A α5β3γ2 (Homo sapiens, UniProt P18507+P31644); experiment: [3H]flumazenil competition binding assay, membranes of HEK293 cells expressing GABAA receptors; settings: displacement of [3H]-Flumazenil 0.5 nM, HEK293 cells expressing human receptors, mean of two determinations; Table 1
Outline: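 Receptor source: human α5β3γ2 transiently transfected into HEK293 cells, membranes in pH 7.5 Krebs-tris. Filtration through GF/C, then scintillation counting.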

h-GABA-A α5β3γ2 [2] = target: T1, h-GABA-A α5β3γ2; experiment: Two-electrode voltage clamp electrophysiology in Xenopus laevis oocytes expressing GABAA receptors, modulation of GABA EC20 current; format: cell-based; set-up: host or cells: Xenopus laevis oocytes micro-injected with RNA transcripts of the subunits; settings: Table 1; for Efficacy (GABA) %: % modulation of GABA EC20 = 100*(Fold increase-1); for Fold increase h-GABA-A α5β3γ2 oocyte: test compound at approx. 30 fold its Ki, GABA at EC20
Outline: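 Modulation is reported as % of the GABA EC20 current, calculated as 100*(Fold increase−1) from the peak ratio between a second GABA response carrying compound (applied at roughly 30-fold Ki) and a preceding control response. Oocytes expressing human α5β3γ2 were clamped at −80 mV at room temperature, 3–5 days after injection.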

| Compound | Ki (h-GABA-A α5β3γ2 [1]) [µM] | Efficacy (GABA) % (h-GABA-A α5β3γ2 [2]) [%] | Fold increase h-GABA-A α5β3γ2 oocyte (h-GABA-A α5β3γ2 [2]) |
| --- | --- | --- | --- |
| CCOC1CN(c2cnn(Cc3c(-c4ccc(C)nn4)noc3C)c(=O)c2)C1 [Example 170, 5-(3-ethoxyazetidin-1-yl)-2-[[5-methyl-3-(6-methylpyridazin-3-yl)isoxazol-4-yl]methyl]pyridazin-3-one] | 0.0022 | 111 | 2.11 |
| Cc1onc(-c2ccc(F)cc2)c1Cn1ncc(N2C[C@@H](C)O[C@@H](C)C2)cc1=O [Example 12, 5-(cis-2,6-Dimethylmorpholino)-2-((3-(4-fluorophenyl)-5-methylisoxazol-4-yl)methyl)pyridazin-3(2H)-one] | 0.0038 | 114 | 2.14 |
| Cc1ccc(-c2noc(C)c2Cn2ncc(N3CC(OC4CC4)C3)cc2=O)cn1 [Example 136, 5-[3-(cyclopropoxy)azetidin-1-yl]-2-[[5-methyl-3-(6-methyl-3-pyridyl)isoxazol-4-yl]methyl]pyridazin-3-one] | 0.0052 | 96 | 1.96 |
| Cc1onc(-c2ncc(C(F)(F)F)cn2)c1Cn1ncc(N2CC3(CCC(F)CO3)C2)cc1=O (single isomer, unassigned) [Example 332] | 0.0026 | 65 | 1.65 |
| Cc1ccc(-c2noc(C)c2Cn2ncc(N3CCC(C#N)CC3)cc2=O)cn1 [Example 34, 1-[1-[[5-methyl-3-(6-methyl-3-pyridyl)isoxazol-4-yl]methyl]-6-oxo-pyridazin-4-yl]piperidine-4-carbonitrile] | 0.0043 | 222 | 3.22 |
| Cc1ccc(-c2noc(C)c2Cn2ncc(N3CC4(CC(C)CO4)C3)cc2=O)nn1 (single isomer, unassigned) [Example 240, 2-[[5-methyl-3-(6-methylpyridazin-3-yl)isoxazol-4-yl]methyl]-5-[(7R)-7-methyl-5-oxa-2-azaspiro[3.4]octan-2-yl]pyridazin-3-one or enantiomer] | 0.0057 | 94 | 1.94 |
| Cc1ccc(-c2noc(C)c2Cn2ncc(N3CC4(CC(C(F)(F)F)CCO4)C3)cc2=O)nn1 (single isomer, unassigned) [Example 311] | 0.0024 | 88 | 1.88 |
| Cc1ccc(-c2noc(CF)c2Cn2ncc(N3CC4(CCCCO4)C3)cc2=O)nn1 [Example 328, 2-((5-(fluoromethyl)-3-(6-methylpyridazin-3-yl)isoxazol-4-yl)methyl)-5-(5-oxa-2-azaspiro[3.5]nonan-2-yl)pyridazin-3(2H)-one] | 0.0126 | 70 | 1.7 |
| Cc1onc(-c2ccc(F)cc2)c1Cn1ncc(N2CCN(C(=O)C3(C)CC3)CC2)cc1=O [Example 15, 2-((3-(4-Fluorophenyl)-5-methylisoxazol-4-yl)methyl)-5-(4-(1-methylcyclopropanecarbonyl)piperazin-1-yl)pyridazin-3(2H)-one] | 0.0352 | 120 | 2.2 |

More lines, now with the values ahead:

| Ki (h-GABA-A α5β3γ2 [1]) [µM] | Efficacy (GABA) % (h-GABA-A α5β3γ2 [2]) [%] | Fold increase h-GABA-A α5β3γ2 oocyte (h-GABA-A α5β3γ2 [2]) | Compound |
| --- | --- | --- | --- |
| 0.0389 | 155 | 2.55 | Cc1ccc(-c2noc(C)c2Cn2ncc(N3CC4(CCC4)C3)cc2=O)cn1 [Example 69, 5-(2-azaspiro[3.3]heptan-2-yl)-2-[[5-methyl-3-(6-methyl-3-pyridyl)isoxazol-4-yl]methyl]pyridazin-3-one] |
| 0.0297 | 80 | 1.8 | Cc1ccc(-c2noc(C)c2Cn2ncc(-c3ccc(C4CC4)nc3)cc2=O)cn1 [Example 173, 5-(6-cyclopropyl-3-pyridyl)-2-[[5-methyl-3-(6-methyl-3-pyridyl)isoxazol-4-yl]methyl]pyridazin-3-one] |
| 0.0227 | 86 | 1.86 | Cc1ccc(-c2noc(C)c2Cn2ncc(-c3cnn(CC4CC4)c3)cc2=O)cn1 [Example 157, 5-(1-(cyclopropylmethyl)-1H-pyrazol-4-yl)-2-((5-methyl-3-(6-methylpyridin-3-yl)isoxazol-4-yl)methyl)pyridazin-3(2H)-one] |
| 0.0146 | 203 | 3.03 | Cc1ccc(-c2noc(C)c2Cn2ncc(N3CCC(C(F)(F)F)CC3)cc2=O)cn1 [Example 24, 2-[[5-methyl-3-(6-methyl-3-pyridyl)isoxazol-4-yl]methyl]-5-[4-(trifluoromethyl)-1-piperidyl]pyridazin-3-one] |
| 0.0186 | 152 | 2.52 | Cc1ccc(-c2noc(C)c2Cn2ncc(N3CC(Oc4ccc(F)cc4)C3)cc2=O)cn1 [Example 123, 5-[3-(4-fluorophenoxy)azetidin-1-yl]-2-[[5-methyl-3-(6-methyl-3-pyridyl)isoxazol-4-yl]methyl]pyridazin-3-one] |
| 0.0312 | 82 | 1.82 | Cc1onc(-c2ccc(Cl)nc2)c1Cn1ncc(-c2cnn(C3CC3)c2)cc1=O [Example 222, 2-((3-(6-chloropyridin-3-yl)-5-methylisoxazol-4-yl)methyl)-5-(1-cyclopropyl-1H-pyrazol-4-yl)pyridazin-3(2H)-one] |
| 0.0084 | 248 | 3.48 | Cc1ccc(-c2noc(C)c2Cn2ncc(-c3cncc(Cl)c3)cc2=O)cn1 [Example 148, 5-(5-chloro-3-pyridyl)-2-((5-methyl-3-(6-methyl-3-pyridyl)isoxazol-4-yl)methyl)pyridazin-3-one] |
| 0.0202 | 89 | 1.89 | Cc1ccc(-c2noc(C)c2Cn2ncc(-c3ccc(OC(F)F)nc3)cc2=O)cn1 [Example 149, 5-(6-(difluoromethoxy)pyridin-3-yl)-2-((5-methyl-3-(6-methylpyridin-3-yl)isoxazol-4-yl)methyl)pyridazin-3(2H)-one] |
| 0.0262 | 119 | 2.19 | COc1cccc(-c2cnn(Cc3c(-c4ccc(C)nc4)noc3C)c(=O)c2)n1 [Example 145, 5-(6-methoxy-2-pyridyl)-2-((5-methyl-3-(6-methyl-3-pyridyl)isoxazol-4-yl)methyl)pyridazin-3-one] |
| 0.0114 | 104 | 2.04 | Cc1ccc(-c2noc(C)c2Cn2ncc(-c3ccnc(C(F)(F)F)c3)cc2=O)cn1 [Example 108, 2-((5-methyl-3-(6-methylpyridin-3-yl)isoxazol-4-yl)methyl)-5-(2-(trifluoromethyl)pyridin-4-yl)pyridazin-3(2H)-one] |
| 0.0047 | 142 | 2.42 | Cc1ccc(-c2noc(C)c2Cn2ncc(N(C)C3COC3)cc2=O)cn1 [Example 65, 5-(methyl(oxetan-3-yl)amino)-2-((5-methyl-3-(6-methylpyridin-3-yl)isoxazol-4-yl)methyl)pyridazin-3(2H)-one] |
